Measured values as given in US9296778B2, “3′,5′-cyclic phosphate prodrugs for HCV infection” (Idenix Pharmaceuticals, Inc., priority 2012, dated 2016).
Where two headings read alike, the source gives them in different places.

Tests used:
HCV genotype 1b replicon = assay: HCV Replicon Assay; assay type: cell-based; conditions: Zluc cells (Huh-7-derived, HCV genotype 1b replicon, luciferase reporter), 72 hours, read-out: HCV Replicon EC50
Description: Huh-7-derived cell line (Zluc) that harbors an HCV genotype 1b replicon and a luciferase reporter gene was grown in Dulbecco's Modified Eagle Medium (DMEM) supplemented with 10% fetal bovine serum, 2 mM GlutaMAX, 1% MEM nonessential amino acids, 100 IU/mL penicillin, 100 μg/mL streptomycin, and 0.5 mg/mL Geneticin® (G418). For dose response testing the cells were seeded in 96-well plates at 7.5×10^3 cells per well in a volume of 50 μL, and incubated at 37° C./5% CO2. Drug solutions were made up freshly in Huh-7 media as 2× stocks. Ten additional 5-fold dilutions were prepared from these stocks in DMEM without G418. At least three hours after Zluc cells were seeded, drug treatment was initiated by adding 50 μL of drug dilutions to the plates in duplicate. Final concentrations of drug ranged from 100 μM to […]. Cells were then incubated at 37° C./5% CO2. Alternatively, compounds were tested at two concentrations (1 μM and 10 μM). […] For this, media was removed from the plates via gentle tapping. Fifty microliters of ONE-glo luciferase assay reagent was added to each well. The plates were shaken gently for 3 min at room temperature and luminescence was measured on a Victor^3 V 1420 multilabel counter (Perkin Elmer) with a 1 second read time using a 700 nm cut-off filter. The EC50 values were calculated from dose response curves from the resulting best-fit equations determined by Microsoft Excel and XLfit 4.1 software. When screening at two fixed concentrations, the results were expressed as % inhibition at 1 μM and 10 μM.

[1] = Stability in simulated intestinal fluid; assay type: in vitro ADME; conditions: 100 μM, 2 hours at 37° C., percent of the peak area at time zero
Description: (§1) Simulated gastric and intestinal fluids containing pepsin and pancreatin respectively were prepared according to the U.S. Pharmacopoeia USP291 procedure (www.pharmacopeia.cn/v29240/usp29nf24s0_ris1s126.html). Compounds (final concentration 100 μM) were incubated in duplicate in the appropriate fluid for 2 hours at 37° C. The samples were quenched with 200 μl cold acetonitrile, vortexed for 30 seconds and then centrifuged at 16,100 g for 10 min. The supernatants were analyzed by HPLC on a C-18 column with UV detection at 252 nm. The time 0 samples were prepared by adding SGF or SIF fluid to the quenching solvent followed by the test compound. Stability of the compounds was determined by peak area of the test compounds after incubation and calculated as percent of the peak area observed at time zero.

[2] = Stability in fresh human whole blood; assay type: in vitro ADME; conditions: 0.5 μM, percent unchanged test compound
Description: (§2) Stability of compounds were determined in fresh human whole blood with K2EDTA as the anticoagulant (stored refrigerated at 2-8° C. and used within 7 days of receipt). The experiment was conducted with three replicates for each time point. Whole blood, pre-incubated at 37° C. for 10-15 minutes, was fortified with a solution of test compound for a final concentration of 0.5 μM and mixed for 30 sec. At intervals (0, 0.5, 1 and 2 hr), three 50 μL aliquots were combined with 200 μL (each) of an ice-cold solution of the internal standard (carbutamide 500 ng/mL in acetonitrile). The samples were vortexed for 30 sec and then centrifuged at 16,100 g for 5 min. The supernatant was analyzed by LC-MS/MS. The MS peak area ratio of the test compounds versus the internal standard was calculated and percent unchanged test compound was calculated for each time point using this ratio.

Stability in mouse blood = assay type: in vitro ADME; conditions: on ice, percent unchanged test compound
Description: as §2
The stability in mouse blood was determined on ice at 0, 0.5 and 1 hr as herein.

fresh human hepatocytes = assay: Release of active metabolite in fresh human hepatocytes; assay type: in vitro ADME; conditions: 10 μM compound; for FHH TP Cmax: fresh human hepatocytes; for FHH TP AUC: fresh human hepatocytes, 6, 24 and 48 hours
Description: (§3) Plates of fresh human and mouse hepatocytes were obtained on ice. The medium was removed and replaced with hepatocyte culture medium (William's E supplemented with penicillin-streptomycin, 1% L-glutamine, 1% insulin-transferrin-selenium and 0.1 μM Dexamethasone (Invitrogen) or with Invitro GRO HI medium complemented with Torpedo antibiotics (Celsis)). Cells were left overnight in an incubator at 37° C. to acclimatize to culture and the medium.
(§4) Hepatocyte incubations were conducted at a final volume of 0.5 mL hepatocyte culture medium/well (0.8 million cells/well for human and 0.5 million cells/well for mouse; 12 well plate no overlay, collagen coat). Culture medium from overnight incubation of cells was removed and replaced with fresh medium, pre-warmed to 37° C., containing 10 μM of test compound from a stock solution in DMSO (final DMSO concentration was 0.1%). At each specific time point, incubation medium was removed and cell monolayers were carefully washed two times with ice-cold PBS. Following the last wash, all PBS was carefully removed and 1.0 mL of extraction solution (ice-cold 70% methanol/30% water) added. Cells were scraped off and suspended in the extraction solution, transferred to 2 mL polypropylene microfuge tubes and intracellular contents extracted overnight at −20° C.
(§5) After the overnight treatment the cellular extracts were prepared by centrifugation at 16,000×g for 10 min to remove cellular debris. The remaining sample was then dried using a refrigerated centrivap concentrator. Dry extracts were reconstituted in 1000 μL of HPLC-grade water and centrifuged at 16,000×g for 10 min. Aliquots (100 μL each) of the supernatant were transferred into a 96 well plate and internal standard (4 ng/mL final concentration) was added as the internal standard (IS) for LC-MS/MS analysis.
(§6) The incubation time points were 6, 24 and 48 hours for human hepatocytes and 1, 4, 8, 12 and 24 hours for mouse hepatocytes.

[3] = Plasma pharmacokinetics following a single oral dose in CD-1 mice; assay type: in vivo; conditions: single oral dose 25 mg/kg in PEG 200, CD-1 male mice; given at 1 μmol/kg; 25 mg/kg
Description: (§7) A single oral dose of test compound at 25 mg/kg in PEG 200 (dose volume 5 mL/kg) was administered to nine CD-1 male mice. Five untreated animals were used for the collection of control plasma and liver. Terminal plasma and liver samples were collected from three animals per time point at 4, 12 and 24 hours post dose. Liver specimens were collected from all animals immediately after the incision. Freezing forceps stored in liquid nitrogen were used to freeze the liver before excision.
Plasma samples were analyzed for 2′-methylguanosine (2′-MeG) by LC-MS/MS. The internal standard (IS) was 2′-MeG-D3. For protein precipitation and extraction, each plasma sample (50 μL) was treated with 500 μL of 0.2% formic acid in acetonitrile and 20 μL of the internal standard working solution. After vortexing and centrifugation, 500 μL of the sample extracts were transferred to a new plate, dried under N2 at ˜28° C. and reconstituted with 75 μL of 0.2% FA in water. The extracts were chromatographed on an Aquasil C18 column using a gradient system of 0.2% formic acid in water and acetonitrile. The analytes were detected and quantified by tandem mass spectrometry in positive ion mode on an MDS Sciex API5000 equipped with a Turbo Ionspray® interface. The calibration range was 0.500 (LLOQ) to 200 ng/mL in mouse plasma.

[4] = Liver pharmacokinetics following a single oral dose in CD-1 mice; assay type: in vivo; conditions: single oral dose 25 mg/kg in PEG 200, CD-1 male mice; given at 1 μmol/kg; 25 mg/kg
Description: as §7
Liver samples were analyzed for the active species 2′-methylguanosine triphosphate (2′-MeGTP) by LC-MS/MS. 2′-MeGTP levels were assayed by homogenizing (on ice) a known weight of mouse liver with 4× volume of 0.95 M trichloroacetic acid (TCA). Internal standard solution was added to the homogenate followed by neutralization with 20% ammonium hydroxide solution and addition of 500 μL 1% formic acid. The tissue samples were extracted by weak anion exchange solid phase extraction (SPE). Post extraction, the eluates were evaporated under nitrogen, followed by reconstitution before injection onto the LC-MS/MS system. The samples were chromatographed on a Luna NH2 column using a gradient system of ammonium acetate (1 mM to 20 mM and pH 8.0 to pH 10.0) in water and acetonitrile (70:30). The analyte was detected and quantified by tandem mass spectrometry in positive ion mode on an API4000 equipped with a Turbo Ionspray® interface. The calibration range was 10 to 10000 pmol/mL in mouse liver homogenate (50 to 50000 pmol/g of mouse liver).

in vitro = conditions: human, HCV Replicon CC50, Zluc cells, CellTiter-Blue
mouse hepatocytes = assay: Release of active metabolite in mouse hepatocytes; assay type: in vitro ADME; conditions: 10 μM compound; for MsH Cmax: mouse hepatocytes; for MsH AUC: mouse hepatocytes, 1, 4, 8, 12 and 24 hours
Description: as §3, §4, §5, §6

Zluc cells = assay: cytotoxicity evaluation (CellTiter-Blue Cell Viability Assay); conditions: read-out: HCV Replicon CC50; Zluc cells, CellTiter-Blue
[5] = Stability in simulated gastric fluid; assay type: in vitro ADME; conditions: 100 μM, 2 hours at 37° C., percent of the peak area at time zero
Description: as §1

Row | SMILES | EC50 (HCV genotype 1b replicon; Hepatitis C virus, 72 h) [nM] | Stability SIF [1] [%] | Stability WB_Human (37° C.; 2 hr) [2] [%] | Stability WB_Mouse (ice; 1 hr) (Stability in mouse blood) [%] | FHH TP Cmax (fresh human hepatocytes) | FHH TP AUC (fresh human hepatocytes) | Ms Plasma 2′-MeG AUC [3] [pmol · hr/mL at 1 μmol/kg] | Ms Plasma 2′-MeG Cmax [3] [pmol/mL at 1 μmol/kg] | Ms Liver 2′-MeGTP AUC [4] [pmol · hr/g at 1 μmol/kg] | CC50 (in vitro) [nM] | EC50 (HCV genotype 1b replicon) [nM] | MsH Cmax (mouse hepatocytes) [pmol/mill cells] | MsH AUC (mouse hepatocytes) [pmol · hr/mill cells] | CC50 (Zluc cells) [nM] | Stability SGF [5] [%]
1 | CCOc1nc(N)nc2c1ncn2[C@@H]1O[C@@H]2COP(=O)(OCCCC(=O)OC(C)C)O[C@H]2[C@@]1(C)O (single isomer, unassigned) [Compound 1 Diastereomer 1] | 250 to 1000 | 105 | 73 | 79 | 85 pmol/mill cells | 3425 pmol · hr/mill cells | 9 | 0.56 | 560 | > 50000 | – | – | – | – | –
2 | CCOc1nc(N)nc2c1ncn2[C@@H]1O[C@@H]2COP(=O)(OCCCC(=O)OC(C)C)O[C@H]2[C@@]1(C)O (single isomer, unassigned) [Compound 1 Diastereomer 2] | – | 83 | 87 | 1 | 278 pmol/mill cells | 10125 pmol · hr/mill cells | 68 | 8.6 | 7400 | – | < 250 | 330 | 8363 | < 50000 | –
3 | CCOc1nc(N)nc2c1ncn2[C@@H]1O[C@@H]2COP(=O)(OCCSC(=O)C(C)(C)CO)O[C@H]2[C@@]1(C)O (single isomer, unassigned) [Compound 4 Diastereomer 1] | < 250 | 105 | 82 | – | 120 pmol/mill cells | 4110 pmol · hr/mill cells | 6.7 | 0.5 | 480 | < 50000 | – | 468 | 15078 | – | –
4 | CCOc1nc(N)nc2c1ncn2[C@@H]1O[C@@H]2COP(=O)(OCCSC(=O)C(C)(C)CO)O[C@H]2[C@@]1(C)O (single isomer, unassigned) [Compound 4 Diastereomer 2] | – | 77 | 59 | 105 | 681 pmol/mill cells | 24086 pmol · hr/mill cells | 24 | 1.7 | 1100 | – | < 250 | 386 | 13328 | < 50000 | –
5 | CCOc1nc(N)nc2c1ncn2[C@@H]1O[C@@H]2COP(=O)(OCCSC(=O)C(C)(C)CO)O[C@H]2[C@@]1(C)F (single isomer, unassigned) [Compound 5 Diastereomer 2] | – | 77 | 46 | 93 | 448 pmol/mill cells | 9694 pmol · hr/mill cells | 220 | 23 | 2600 | – | < 250 | 302 | 8713 | > 50000 | –
6 | CCOc1nc(N)nc2c1ncn2[C@@H]1O[C@@H]2COP(=O)(OCCSSC(C)(C)C)O[C@H]2[C@@]1(C)F (single isomer, unassigned) [Compound 24 Diastereomer 2] | – | 47 | 73 | – | 105 pmol/mill cells | 3031 pmol · hr/mill cells | – | – | – | – | < 250 | – | – | < 50000 | 30
7 | CCOc1nc(N)nc2c1ncn2[C@@H]1O[C@@H]2COP(=O)(OC[C@H](C)NC(=O)OC)O[C@H]2[C@@]1(C)F (single isomer, unassigned; diastereomer 2) [Compound 9 Diastereomer 2] | – | 105 | 85 | – | BLD^a | BLD^a | – | – | – | – | < 250 | – | – | > 50000 | 85
